Assay results as given in PubChem BioAssay (NCI).
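Where inhibition never reached the appropriate level, the endpoint shown equals the highest concentration tested. Otherwise, values were interpolated linearly from a five-concentration, 48-hour dose response in 96-well plates. At the GI50, growth is halved. At the TGI there is no net growth.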

Tests used:
Experiment in all cases: DTP human tumour cell line panel, 48 h
BT-549 breast = tested on: BT-549 breast
SN12C renal = tested on: SN12C renal
MCF7 breast = tested on: MCF7 breast
T-47D breast = tested on: T-47D breast
RXF 393 renal = tested on: RXF 393 renal
SR leukemia = tested on: SR leukemia
SK-MEL-5 melanoma = tested on: SK-MEL-5 melanoma
HOP-92 NSCLC = tested on: HOP-92 NSCLC
NCI-H23 lung = tested on: NCI-H23 lung
NCI/ADR-RES ovarian = tested on: NCI/ADR-RES ovarian
MALME-3M melanoma = tested on: MALME-3M melanoma
SF-268 CNS = tested on: SF-268 CNS
A549 NSCLC = tested on: A549 NSCLC
SW-620 colon = tested on: SW-620 colon
CAKI-1 renal = tested on: CAKI-1 renal
OVCAR-5 ovarian = tested on: OVCAR-5 ovarian
NCI-H460 lung = tested on: NCI-H460 lung
PC-3 prostate = tested on: PC-3 prostate
KM12 colon = tested on: KM12 colon
NCI-H226 lung = tested on: NCI-H226 lung
HS 578T breast = tested on: HS 578T breast
HT29 colon = tested on: HT29 colon
NCI-H522 lung = tested on: NCI-H522 lung
HL-60(TB) leukemia = tested on: HL-60(TB) leukemia
K-562 leukemia = tested on: K-562 leukemia
SNB-75 CNS = tested on: SNB-75 CNS
SK-MEL-28 melanoma = tested on: SK-MEL-28 melanoma
CCRF-CEM leukemia = tested on: CCRF-CEM leukemia
RPMI-8226 leukemia = tested on: RPMI-8226 leukemia
786-0 renal = tested on: 786-0 renal
DU-145 prostate = tested on: DU-145 prostate
MDA-MB-435 = tested on: MDA-MB-435
A498 renal = tested on: A498 renal
ACHN renal = tested on: ACHN renal
OVCAR-3 ovarian = tested on: OVCAR-3 ovarian
M14 melanoma = tested on: M14 melanoma
SK-MEL-2 melanoma = tested on: SK-MEL-2 melanoma
SNB-19 CNS = tested on: SNB-19 CNS
COLO 205 colon = tested on: COLO 205 colon
OVCAR-8 ovarian = tested on: OVCAR-8 ovarian
HOP-62 NSCLC = tested on: HOP-62 NSCLC
HCT-116 colon = tested on: HCT-116 colon
HCC-2998 colon = tested on: HCC-2998 colon
MDA-MB-231 breast = tested on: MDA-MB-231 breast
UACC-257 melanoma = tested on: UACC-257 melanoma
UACC-62 melanoma = tested on: UACC-62 melanoma
SF-539 CNS = tested on: SF-539 CNS
IGROV1 ovarian = tested on: IGROV1 ovarian
HCT-15 colon = tested on: HCT-15 colon
OVCAR-4 ovarian = tested on: OVCAR-4 ovarian
LOX IMVI melanoma = tested on: LOX IMVI melanoma
SK-OV-3 ovarian = tested on: SK-OV-3 ovarian
SF-295 CNS = tested on: SF-295 CNS
MOLT-4 leukemia = tested on: MOLT-4 leukemia
U251 CNS = tested on: U251 CNS
UO-31 renal = tested on: UO-31 renal
EKVX NSCLC = tested on: EKVX NSCLC

For CCN(Cc1cccc(OC)c1)c1ccc(CO)c(Cl)c1, the GI50 (BT-549 breast) was 13.9 µM, the TGI (BT-549 breast) was 28.9 µM and the GI50 (SN12C renal) was 12.9 µM. For the same compound, the TGI (SN12C renal) was 32.1 µM, the GI50 (MCF7 breast) was 0.196 µM and the TGI (MCF7 breast) was 14.5 µM. It also gave a GI50 (T-47D breast) of 0.165 µM, a TGI (T-47D breast) of 1.83 µM and a GI50 (RXF 393 renal) of 11.9 µM. It also gave a TGI (RXF 393 renal) of 28.8 µM, a GI50 (SR leukemia) of 22.9 µM and a TGI (SR leukemia) of 66.4 µM. For the same compound, the GI50 (SK-MEL-5 melanoma) was 10.2 µM, the TGI (SK-MEL-5 melanoma) was 22.7 µM and the GI50 (HOP-92 NSCLC) was 2.11 µM. The TGI (HOP-92 NSCLC) was 20.5 µM, the GI50 (NCI-H23 lung) was 13.6 µM and the TGI (NCI-H23 lung) was 51 µM. For the same compound, the GI50 (NCI/ADR-RES ovarian) was 13.7 µM, the TGI (NCI/ADR-RES ovarian) was 43.4 µM and the GI50 (MALME-3M melanoma) was 17.5 µM. For the same compound, the TGI (MALME-3M melanoma) was 40.9 µM, the GI50 (SF-268 CNS) was 22.5 µM and the TGI (SF-268 CNS) was 71.6 µM. It also gave a GI50 (A549 NSCLC) of 2.06 µM, a TGI (A549 NSCLC) of 27.7 µM and a GI50 (SW-620 colon) of 0.763 µM. The TGI (SW-620 colon) was > 100 µM, the GI50 (CAKI-1 renal) was 0.901 µM and the TGI (CAKI-1 renal) was 35.3 µM. The GI50 (OVCAR-5 ovarian) was 0.157 µM, the TGI (OVCAR-5 ovarian) was 0.606 µM and the GI50 (NCI-H460 lung) was 0.272 µM. It also gave a TGI (NCI-H460 lung) of 14.1 µM, a GI50 (PC-3 prostate) of 19.8 µM and a TGI (PC-3 prostate) of 74.3 µM. It also gave a GI50 (KM12 colon) of 17.1 µM, a TGI (KM12 colon) of 40.5 µM and a GI50 (NCI-H226 lung) of 0.0957 µM. It also gave a TGI (NCI-H226 lung) of 0.231 µM, a GI50 (HS 578T breast) of 18.3 µM and a TGI (HS 578T breast) of 61.9 µM. The GI50 (HT29 colon) was 2.13 µM, the TGI (HT29 colon) was 17.3 µM and the GI50 (NCI-H522 lung) was 9.51 µM. The TGI (NCI-H522 lung) was 32.6 µM, the GI50 (HL-60(TB) leukemia) was 14.6 µM and the TGI (HL-60(TB) leukemia) was 51.7 µM. The GI50 (K-562 leukemia) was 1.92 µM, the TGI (K-562 leukemia) was > 86.5 µM and the GI50 (SNB-75 CNS) was 16.3 µM. The TGI (SNB-75 CNS) was 62 µM, the GI50 (SK-MEL-28 melanoma) was 14.7 µM and the TGI (SK-MEL-28 melanoma) was 35.8 µM. For the same compound, the GI50 (CCRF-CEM leukemia) was 24.8 µM, the TGI (CCRF-CEM leukemia) was > 82.6 µM and the GI50 (RPMI-8226 leukemia) was 6.44 µM. For the same compound, the TGI (RPMI-8226 leukemia) was 47.9 µM, the GI50 (786-0 renal) was 12.4 µM and the TGI (786-0 renal) was 38.5 µM. The GI50 (DU-145 prostate) was 21.1 µM, the TGI (DU-145 prostate) was 67.5 µM and the GI50 (MDA-MB-435) was 16.6 µM. The TGI (MDA-MB-435) was 35.6 µM, the GI50 (A498 renal) was 0.0598 µM and the TGI (A498 renal) was 0.191 µM. For the same compound, the GI50 (ACHN renal) was 26.5 µM, the TGI (ACHN renal) was 96.8 µM and the GI50 (OVCAR-3 ovarian) was 0.477 µM. The TGI (OVCAR-3 ovarian) was 4.34 µM, the GI50 (M14 melanoma) was 16.2 µM and the TGI (M14 melanoma) was 41 µM. The GI50 (SK-MEL-2 melanoma) was 2.81 µM, the TGI (SK-MEL-2 melanoma) was 21.3 µM and the GI50 (SNB-19 CNS) was 24 µM. For the same compound, the TGI (SNB-19 CNS) was > 100 µM, the GI50 (COLO 205 colon) was 1.02 µM and the TGI (COLO 205 colon) was 4.35 µM. For the same compound, the GI50 (OVCAR-8 ovarian) was 12.6 µM, the TGI (OVCAR-8 ovarian) was 45.7 µM and the GI50 (HOP-62 NSCLC) was 3.23 µM. It also gave a TGI (HOP-62 NSCLC) of 39.2 µM, a GI50 (HCT-116 colon) of 0.0731 µM and a TGI (HCT-116 colon) of 11.2 µM. The GI50 (HCC-2998 colon) was 12.5 µM, the TGI (HCC-2998 colon) was 33.8 µM and the GI50 (MDA-MB-231 breast) was 14.9 µM. The TGI (MDA-MB-231 breast) was 44 µM, the GI50 (UACC-257 melanoma) was 0.121 µM and the TGI (UACC-257 melanoma) was 0.295 µM. The GI50 (UACC-62 melanoma) was 0.0839 µM, the TGI (UACC-62 melanoma) was 0.48 µM and the GI50 (SF-539 CNS) was 19 µM. It also gave a TGI (SF-539 CNS) of 40.5 µM, a GI50 (IGROV1 ovarian) of 0.078 µM and a TGI (IGROV1 ovarian) of 0.833 µM. For the same compound, the GI50 (HCT-15 colon) was 14.8 µM, the TGI (HCT-15 colon) was 66.6 µM and the GI50 (OVCAR-4 ovarian) was 0.291 µM. The TGI (OVCAR-4 ovarian) was 14.3 µM, the GI50 (LOX IMVI melanoma) was 14.5 µM and the TGI (LOX IMVI melanoma) was 27.9 µM. The GI50 (SK-OV-3 ovarian) was 8.52 µM, the TGI (SK-OV-3 ovarian) was 33.6 µM and the GI50 (SF-295 CNS) was 0.889 µM. For the same compound, the TGI (SF-295 CNS) was 22 µM, the GI50 (MOLT-4 leukemia) was 21.2 µM and the TGI (MOLT-4 leukemia) was > 71.9 µM. The GI50 (U251 CNS) was 0.88 µM, the TGI (U251 CNS) was 19.9 µM and the GI50 (UO-31 renal) was 8.4 µM. The TGI (UO-31 renal) was 45.1 µM, the GI50 (EKVX NSCLC) was 19.9 µM and the TGI (EKVX NSCLC) was 71.3 µM.
